The values below come from the NIST ThermoML archive (doi:10.1016/j.tca.2008.10.023).

“And” between values parts separate entries of the source, which are not always exact repeats. Equal entries are not always repeated. Numbers after ± are expanded uncertainties.

The data set in a line: cn = amount concentration of the nth substance listed, in mol/dm3. The settings on record: 101 kPa, Liquid, c1 = 2; for speed of sound: Linear variable-path acoustic interferometer; for mass density: Pycnometric method.

With `[Cl-].[K+]` [potassium chloride] + O, the speed of sound (298.15 K) came to 1595.2 ± 1.8 m/s; the speed of sound (303.15 K) was 1605.9 ± 1.8 m/s; the speed of sound (308.15 K) amounted to 1610.2 ± 1.8 m/s; the speed of sound (313.15 K) was determined as 1616.4 ± 1.8 m/s; the speed of sound (318.15 K) stood at 1621.4 ± 1.8 m/s; the speed of sound (323.15 K) was 1626.5 ± 1.8 m/s. Further, the mass density by setting is: (298.15 K) 1089.1 ± 0.4 kg/m3; (303.15 K) 1087.5 ± 0.4 kg/m3; (308.15 K) 1085.6 ± 0.4 kg/m3; (313.15 K) 1083.4 ± 0.4 kg/m3; (318.15 K) 1080.9 ± 0.4 kg/m3; (323.15 K) 1078.3 ± 0.5 kg/m3.
For the compound `O=[N+]([O-])[O-].[K+]` [potassium nitrate] + O, the speed of sound reads like this: (298.15 K) 1562 ± 1.7 m/s; (303.15 K) 1569.4 ± 1.8 m/s; (308.15 K) 1575.8 ± 1.8 m/s and 1575 ± 1.8 m/s; (313.15 K) 1580 ± 1.8 m/s; (318.15 K) 1584.6 ± 1.8 m/s and 1584.5 ± 1.8 m/s; (323.15 K) 1588.9 ± 1.8 m/s and 1588.8 ± 1.8 m/s. In addition, the mass density is, setting by setting: (298.15 K) 1122.9 ± 0.4 kg/m3; (303.15 K) 1120.6 ± 0.4 kg/m3; (308.15 K) 1118 ± 0.4 kg/m3; (313.15 K) 1115 ± 0.4 kg/m3; (318.15 K) 1111.8 ± 0.5 kg/m3; (323.15 K) 1108.2 ± 0.5 kg/m3.

A word on the speed of sound: it is how fast a sound wave travels through the sample. As a reminder, the mass density is the mass of a sample divided by its volume.
